Measured values from US9102648B1, “Bioavailable diacylhydrazine ligands for modulating the expression of exogenous genes via an ecdysone receptor complex” (Intrexon Corporation, priority 2003, dated 2015).
Read-outs that look alike come from different tables or passages of the source.

Tests used:
[1] = target: GAL4 DBD-CfEcR(DEF)/VP16AD-MmRXRE (Choristoneura fumiferana, UniProt O77240); assay: 13B3 Assay (CHO stable cell line, luciferase reporter); settings: for Fold Induction, 13B3 Assay, 33 uM: 33 uM ligand; for Fold Induction, 13B3 Assay, 33 uM / Fold Induction, 13B3 Assay, 3.3 uM: RLU ligand treated / RLU DMSO treated cells; for Fold Induction, 13B3 Assay, 3.3 uM: 3.3 uM ligand; for 13B3 assay Rel Max FI: maximum fold induction at any concentration relative to that of GS-E ligand, CHO 13B3 cells; for fold induction at 3.3 µM: read-out: Fold Induction, 13B3 Assay, 3.3 uM; for fold induction at 33 µM: read-out: Fold Induction, 13B3 Assay, 33 uM
Method in brief: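 CHO 13B3 clone stably expressing GAL4 DBD–CfEcR(DEF) and VP16AD–MmRXR(DE) with GAL4 RE–luciferase reporter; cells plated 24 h at 37 °C, then treated with ligands (DMSO stocks diluted 300-fold), 8 concentrations 33–0.01 μM.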

[2] = target: GAL4 DBD (1-147)-CfEcR(DEF)/VP16AD-βRXREF-LmUSPEF (Choristoneura fumiferana, UniProt O77240); assay: cell-based; settings: for Fold Induction, 27-63 Assay, 3.3 uM: 3.3 uM ligand; for Fold Induction, 27-63 Assay, 3.3 uM / Fold Induction, 27-63 Assay, 33 uM: RLU ligand treated / RLU DMSO treated cells; for Fold Induction, 27-63 Assay, 33 uM: 33 uM ligand; for 27-63 assay Rel Max FI: maximum fold induction at any concentration relative to that of GS-E ligand, CHO 27-63 cells; for fold induction at 3.3 µM: read-out: Fold Induction, 27-63 Assay, 3.3 uM; for fold induction at 33 µM: read-out: Fold Induction, 27-63 Assay, 33 uM
[3] = read-out: 27-63 assay EC50, CHO 27-63 stable cell line, luciferase reporter, average of two wells
[4] = read-out: 13B3 EC50, CHO 13B3 stable cell line, luciferase reporter, 48 h, average of two wells

| SMILES | Fold Induction, 13B3 Assay, 33 uM ([1]; average of two wells) | Fold Induction, 27-63 Assay, 3.3 uM ([2]; average of two wells) | Fold Induction, 27-63 Assay, 33 uM ([2]; average of two wells) | 27-63 assay Rel Max FI [2] | EC50 [2, 3] | Fold Induction, 13B3 Assay, 3.3 uM ([1]; average of two wells) | 13B3 assay Rel Max FI [1] | EC50 [1, 4] | EC50 [1] | fold induction at 3.3 µM [1] | fold induction at 33 µM [1] | EC50 [2] | fold induction at 3.3 µM [2] | fold induction at 33 µM [2] |
| --- | --- | --- | --- | --- | --- | --- | --- | --- | --- | --- | --- | --- | --- | --- |
| CC(=O)c1ccc(C(=O)NN(C(=O)c2cc(C(=O)O)cc(C(=O)O)c2)C(C)(C)C)cc1 [RG-100150] | 1 | – | – | – | – | – | – | – | – | – | – | – | – | – |
| CC(O)c1ccc(C(=O)NN(C(=O)c2cc(F)cc(F)c2)C(C)(C)C)cc1 (stereo not shown) [RG-100342] | 611 | 2 | 1287 | 0.674 | 17700 nM | – | – | – | – | – | – | – | – | – |
| COc1cccc(C(=O)N(NC(=O)c2ccc3c(c2C)OCCO3)C(C)(C)C)c1 [RG-100360] | 745 | 1627 | 1353 | 0.873 | 615 nM | 1111 | 0.825 | 588 nM | – | – | – | – | – | – |
| Cc1c(C(=O)NN(C(=O)c2ccc(F)cc2)C(C)(C)C)ccc2c1OCCO2 [RG-100425] | 747 | 1156 | 1099 | 0.671 | 370 nM | – | – | – | – | – | – | – | – | – |
| Cc1c(C(=O)NN(C(=O)c2ccc(F)cc2)C(C)(C)C)ccc2c1OCO2 [RG-100448] | 2 | 66 | 847 | 0.609 | 5290 nM | – | – | – | – | – | – | – | – | – |
| COc1ccccc1C(=O)N(NC(=O)c1ccc2c(c1)OCCO2)C(C)(C)C [RG-100492] | 1002 | 4 | 1378 | 0.916 | 11800 nM | – | – | – | – | – | – | – | – | – |
| COc1cccc(C(=O)NN(C(=O)c2cc(C)cc(C)c2)C(C)(C)C)c1[N+](=O)[O-] [RG-100568] | 4122 | 615 | 2286 | 1.197 | 4130 nM | 2 | 1.035 | 44300 nM | – | – | – | – | – | – |
| COc1cccc(C(=O)NN(C(=O)c2cc(C)ccc2[N+](=O)[O-])C(C)(C)C)c1C [RG-100569] | 329 | 884 | 841 | 0.720 | 287 nM | 1710 | 0.773 | 185 nM | – | – | – | – | – | – |
| CCc1c(C(=O)NN(C(=O)c2ccccc2OC)C(C)(C)C)ccc2c1OCCO2 [RG-100690] | 500 | 1136 | 1047 | 0.727 | 200 nM | 1094 | 0.506 | 268 nM | – | – | – | – | – | – |
| CCc1c(C(=O)NN(C(=O)c2cccc(OC)c2)C(C)(C)C)ccc2c1OCCO2 [RG-100691] | 643 | 1378 | 1209 | 0.863 | 330 nM | – | – | – | – | – | – | – | – | – |
| COc1cccc(C(=O)NN(C(=O)c2cccc(C)c2)C(C)(C)C)c1C [RG-100694] | 2078 | 1057 | 1004 | 0.767 | 400 nM | 3385 | 0.632 | 405 nM | – | – | – | – | – | – |
| CCc1c(OC)cccc1C(=O)NN(C(=O)c1ccc2c(c1)OCO2)C(C)(C)C [RG-100699] | 2296 | 398 | 1413 | 0.939 | 3960 nM | – | – | – | – | – | – | – | – | – |
| CCc1c(OC)cccc1C(=O)NN(C(=O)c1ccccc1OC)C(C)(C)C [RG-100725] | 581 | 1096 | 1050 | 0.726 | 330 nM | – | – | – | – | – | – | – | – | – |
| COc1ccc(OC)c(C(=O)N(NC(=O)c2cccc(C)c2C)C(C)(C)C)c1 [RG-100763] | 2442 | 107 | 1609 | 0.856 | 5300 nM | – | – | – | – | – | – | – | – | – |
| COc1ccc(C)cc1C(=O)N(NC(=O)c1cccc(OC)c1C)C(C)(C)C [RG-100766] | 391 | 931 | 1993 | 0.944 | 3420 nM | – | – | – | – | – | – | – | – | – |
| COc1cc(C)cc(C(=O)N(NC(=O)c2cccc(OC)c2C)C(C)(C)C)c1 [RG-100767] | 682 | 2097 | 2171 | 1.218 | 334 nM | 4504 | 0.920 | 1060 nM | – | – | – | – | – | – |
| COc1cc(C(=O)N(NC(=O)c2ccc3c(c2C)OCCO3)C(C)(C)C)cc(OC)c1O [RG-115009, 4-Hydroxy-3,5-dimethoxy-benzoic acid N-tert-butyl-N′-(5-methyl-2,3-dihydro-benzo[1,4]dioxine-6-carbonyl)-hydrazide] | – | – | – | – | – | – | 0.917 | – | 18900 nM | 19 | 2550 | – | – | – |
| CCc1c(C(=O)NN(C(=O)c2ccc(F)c(C(F)(F)F)c2)C(C)(C)C)ccc2c1OCCO2 [RG-115280] | – | 9 | 422 | 0.254 | 11000 nM | – | – | – | – | – | – | – | – | – |
| COc1ccc(C(=O)N(NC(=O)c2ccc3c(c2C)OCCO3)C(C)(C)C)c(OC)n1 [RG-115517, 2,6-dimethoxy-nicotinic acid N-tert-butyl-N′-(5-methyl-2,3-dihydro-benzo[1,4]dioxine-6-carbonyl)-hydrazide] | – | – | – | – | – | – | 0.675 | – | 355 nM | 8400 | 12000 | – | – | – |
| Cc1c(C(=O)NN(C(=O)c2cc(F)c(F)c(F)c2)C(C)(C)C)ccc2c1CCCO2 [RG-115575, 3,4,5-Trifluoro-benzoic acid N-tert-butyl-N′-(5-methyl-chroman-6-carbonyl)-hydrazide] | – | – | – | – | – | – | 0.641 | – | 271 nM | 3080 | 865 | – | – | – |
| COc1cnccc1C(=O)N(NC(=O)c1cccc(O)c1C)C(C)(C)C [RG-115595] | 1381 | – | – | – | – | 6 | – | – | – | – | – | – | – | – |
| CCc1c(OC)cccc1C(=O)NN(C(=O)c1cc(C)cc(C=NNC(=O)C(N)=O)c1)C(C)(C)C [RG-115613, oxamic hydrazone of N-(3-formyl-5-methyl-benzoyl)-N-tert-butyl-N′-(2-ethyl-3-methoxy-benzoyl) hydrazide] | 1726 | – | – | – | – | 180 | 0.734 | 5940 nM | – | – | – | – | – | – |
| CCC(N(NC(=O)c1cccc(OC)c1C)C(=O)c1cc(C)cc(C)c1)C(C)(C)C (stereo not shown) [RG-115819, 3,5-dimethyl-benzoic acid N-(1-ethyl-2,2-dimethyl-propyl)-N′-(3-methoxy-2-methyl-benzoyl)-hydrazide] | – | – | – | 1.045 | – | – | – | – | – | – | – | 25 nM | 1970 | 2370 |
| CCC(N(NC(=O)c1cccc(OC)c1C)C(=O)c1cc(OC)c(C)c(OC)c1)C(C)(C)C (stereo not shown) [RG-115820, 3,5-dimethoxy-4-methyl-benzoic acid N-(1-ethyl-2,2-dimethyl-propyl)-N′-(3-methoxy-2-methyl-benzoyl)-hydrazide] | – | – | – | 1.270 | – | – | – | – | – | – | – | 193 nM | 2860 | 1970 |
| CCCC(N(NC(=O)c1cccc(OC)c1C)C(=O)c1cc(C)cc(C)c1)C(C)(C)C (stereo not shown) [RG-115823] | – | 2093 | 1025 | 1.069 | 11 nM | – | – | – | – | – | – | – | – | – |
| CCCC(N(NC(=O)c1cccc(OC)c1C)C(=O)c1cc(OC)c(C)c(OC)c1)C(C)(C)C (stereo not shown) [RG-115824] | – | 2675 | 948 | 1.218 | 36 nM | – | – | – | – | – | – | – | – | – |
| CCCC(N(NC(=O)c1cccc(OC)c1CC)C(=O)c1cc(OC)c(C)c(OC)c1)C(C)(C)C (stereo not shown) [RG-115829, 3,5-Dimethoxy-4-methyl-benzoic acid N-(1-tert-butyl-butyl)-N′-(2-ethyl-3-methoxy-benzoyl)-hydrazide] | – | – | – | 1.264 | – | – | – | – | – | – | – | 35 nM | 2600 | 45 |
| CCCC(N(NC(=O)c1cccc(OC)c1CC)C(=O)c1cc(C)cc(C)c1)C(C)(C)C (stereo not shown) [RG-115830] | – | 2287 | 353 | 1.049 | 36 nM | – | – | – | – | – | – | – | – | – |
| CCc1c(OC)cccc1C(=O)NN(C(=O)c1cc(OC)c(C)c(OC)c1)C(CC)C(C)(C)C (stereo not shown) [RG-115831] | – | 2063 | 1435 | 1.366 | 96 nM | – | – | – | – | – | – | – | – | – |
| CCc1c(OC)cccc1C(=O)NN(C(=O)c1cc(C)cc(C)c1)C(CC)C(C)(C)C (stereo not shown) [RG-115832] | – | 2063 | 1435 | 1.075 | 35 nM | – | – | – | – | – | – | – | – | – |
